Broadly, the pKi is the negative decadic logarithm of the Ki, by convention in mol/L.

The results in this text go back to patent US7232912B2, “Indazole compounds, pharmaceutical compositions, and methods for mediating or inhibiting cell proliferation” (Agouron Pharmaceuticals, Inc., priority 2000, dated 2007).

SMILES strings stand for the structures. pKi: −log10 of the molar value.

Common to all, as to type: biochemical
In assay [1] the target is T1, FGFR1 tyrosine kinase (Homo sapiens, UniProt P11362, C488A/C584S/L457V).
T1 construct: the cytosolic domain of FGFR1 tyrosine kinase (amino acids 456–766); made in house; host or cells: Sf9 insect cells (baculovirus)
T1 sequence (P11362 456-766 L457V/C488A/C584S): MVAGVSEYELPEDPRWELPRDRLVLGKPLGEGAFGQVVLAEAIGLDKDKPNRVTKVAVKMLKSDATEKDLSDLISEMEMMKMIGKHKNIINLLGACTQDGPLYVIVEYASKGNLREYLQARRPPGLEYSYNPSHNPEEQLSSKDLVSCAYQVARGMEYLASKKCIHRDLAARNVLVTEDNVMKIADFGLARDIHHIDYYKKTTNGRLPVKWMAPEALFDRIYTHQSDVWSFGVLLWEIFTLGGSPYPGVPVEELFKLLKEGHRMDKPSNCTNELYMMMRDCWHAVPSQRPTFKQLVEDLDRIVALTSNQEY
Description: Inhibition of phosphorylated FGF receptor tyrosine kinase activity. The conditions noted are these: read-out: FGF % Inhib. at 1 μM. In a few lines:
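Phosphorylated Sf9-expressed kinases, FGFR1 (aa 456–766) at 100 nM and LCK (aa 223–509) at 50 nM, with 100 μM ATP and poly(Glu,Tyr) 4:1 at 5.1 (FGFR) or 25 mM (LCK), pH 7.5, 37° C. Pyruvate kinase/LDH-coupled NADH loss read at 340 nm under initial-rate conditions; % inhibition versus 2% DMSO control.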

In assay [2] the target is T2, CDK2/cyclin A (Homo sapiens, UniProt P24941).
T2 construct: made in house; host or cells: CDK2: insect cells (baculovirus); cyclin A: E. coli
Put plainly: Inhibition of CDK2/Cyclin A Retinoblastoma Kinase Activity. To be noted: apparent Ki. Put shortly:
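Baculovirus-expressed CDK2 complexed with proteolyzed cyclin A, at 150 nM or 5 nM, phosphorylating an Rb fragment with 25 µM [32/33P]ATP in HEPES pH 7.4, 2% DMSO. Reactions run 20 min at 30°C, EDTA-stopped, filter-captured; apparent Ki from competitive or tight-binding competitive fits.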

In assay [3] the target is CDK4/cyclin D3 (Homo sapiens, UniProt P11802). Description: Inhibition of CDK4/Cyclin D Retinoblastoma Kinase Activity. To be noted: apparent Ki. Put shortly:
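Human CDK4/cyclin D3 (full-length or cyclin D3 1–264), insect-cell expressed, at 5 or 50 nM with His-tagged Rb 386–928 substrate, 25 μM ATP plus [32P/33P]ATP, pH 7.4, 2% DMSO, 30 °C for 20 min; tight binders used 5 nM enzyme for 60 min. Filter-captured phospho-Rb quantified by phosphorimager. Apparent Ki from competitive or tight-binding inhibition fits.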

Sequence of CDK4/cyclin D3 (P11802 2-303 limits assumed): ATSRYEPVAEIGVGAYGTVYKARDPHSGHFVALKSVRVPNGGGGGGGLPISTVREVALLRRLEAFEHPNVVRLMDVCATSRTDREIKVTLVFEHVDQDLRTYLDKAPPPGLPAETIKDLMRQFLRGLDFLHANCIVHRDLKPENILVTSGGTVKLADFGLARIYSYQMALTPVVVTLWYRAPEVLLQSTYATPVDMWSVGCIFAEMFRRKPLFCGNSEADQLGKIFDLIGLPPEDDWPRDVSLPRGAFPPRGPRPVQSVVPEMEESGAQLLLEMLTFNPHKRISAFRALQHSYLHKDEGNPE
Sequence of CDK4/cyclin D3 (P30281 1-264 limits assumed, further chain): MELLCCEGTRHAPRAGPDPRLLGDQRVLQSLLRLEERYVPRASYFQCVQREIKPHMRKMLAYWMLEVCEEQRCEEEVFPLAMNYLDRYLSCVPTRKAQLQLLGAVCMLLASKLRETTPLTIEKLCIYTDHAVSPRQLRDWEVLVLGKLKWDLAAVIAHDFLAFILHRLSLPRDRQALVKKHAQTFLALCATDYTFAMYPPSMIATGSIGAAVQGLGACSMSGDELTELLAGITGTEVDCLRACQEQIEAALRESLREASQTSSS

On to `CCNCc1cncc(-c2ccc3[nH]nc(-c4nc5ccccc5[nH]4)c3c2)c1C` [Example 74, {5-[3-(1H-Benzoimidazol-2-yl)-1H-indazol-5-yl]-4-methyl-pyridin-3-ylmethyl}-ethyl-amine], for which, in assay [1], the inhibition at 1 µM is 82.6%. The pKi in assay [2] was 8.80; in assay [3] it was 9.28.
